As usually defined, the AUC(0-inf) is the area under the concentration-time curve extrapolated to infinity. The term AUC(0-t) denotes exposure summed from dosing to a finite time, without extrapolation to infinity. Usually Cmax stands for the maximum level reached in the sampled fluid or tissue. In general, Tmax refers to the time from dosing to the highest level. Usually half-life stands for the time needed for the level to fall by half in the phase considered. As usually defined, the IC50 is the concentration at which inhibition is half-maximal. Higher therefore signals weaker potency.

Like-named read-outs stand apart in the source and are kept apart here. Where only a bound is given, the exact number is not on record here.

Data set [1] concerns CYP2B6. Kind of data set: In-vivo CYP inhibition study, pharmacokinetics of probe bupropion and hydroxy bupropion. Conditions: plasma.
The test system of data set [2] is P-gp. Put plainly: In-vivo P-gp pharmacokinetic study with digoxin. Set-up: species or system SD rats. Conditions: for Cl / Cmax / AUC(0-inf) / AUC(0-t) / half-life: SD rats, plasma; for Cmax / AUC(0-inf) / AUC(0-t) / half-life: rat, po; for Cmax: 0.5 mg/kg. As for the experimental part: Effect of single dose garcinol on the P-gp was evaluated in-vivo, 18 rats were divided into three groups (Group I- Group III). Group I (Control group): rats were administered intragastrically with a single dose of vehicle (0.5% CMC-Na), and after 2 h of vehicle administration, digoxin (0.5 mg/kg) was given to the rats by intragastric administration. Group II: Rats received a single dose of garcinol (25 mg/kg) and digoxin (0.5 mg/kg) after 2 h. Group III: Verapamil (potent P-gp inhibitor) was administered to these rats followed by the administration of digoxin (results not shown). 0.2 mL of blood was collected at 0, 0.25, 0.5, 1, 2, 4, 6, 8, 24, and 48 h, plasma was separated immediately by centrifuging blood samples at 5000 rpm for 5 min and stored at −80 °C until analysis.
50 µL of plasma samples was crashed with ice-cold ACN containing internal standard (75 ng/mL) and vortexed gently and centrifuged at 10,000 rpm for 5 min. Supernatant was collected and submitted for LC-MS/MS analysis. LC-MS analysis was performed on LC-QTOF/MS (Agilent, 6540) and chromatographic separation was achieved on Waters X-Bridge C18 column (3.5 µm, 50 mm × 1.76 mm I.D) at 30 °C. Digoxin was analysed by a mobile phase consisting of solvent A (0.1% Formic acid in water) and solvent B (100% ACN) flow at a rate of 0.4 mL/min with a gradient program of 5 min. The program consisted of initial10 %B from 0.01 to 3.00 min, followed by 90% B from 3.01 to 4.00 min and again to 10% B from 4.01 to 5.00 min. [M+H]+ ions were identified and quantified for Digoxin and IS as 781.4369 and 515.2442, respectively. Optimized MS operating parameters were as follows: drying gas 10 L/min, gas temperature 325 °C, nebulizer at 40 psig, fragmentor voltage of 140 V and skimmer at 65 V.

A further data set relates to CYP2C19. Kind of data set: CYP2C19 inhibition, probe substrate cocktail in rat liver microsomes (S-mephenytoin 4-hydroxylation). The data set is classed as in vitro ADME. The settings on record: pH 7.4, probe S-mephenytoin (4-hydroxylation), rat liver microsomes 0.5 mg/mL, garcinol 0.11-30 µM. As for the experimental part: (§1) Tacrine was used as CYP1A2 probe substrate instead of Phenacetin to avoid the possible interactions of Phenacetin with CYP2E1 probe substrate Chlorzoxazone. […] The above incubation mixture was pre-incubated for 5 min at 37 °C and the reaction was started by adding NADPH and terminated by the addition of 200 µL of ice-cold acetonitrile containing internal standard (IS). Then the mixture was vortex mixed and centrifuged at 4000 rpm for 10 min at 4 °C and supernatant was separated and analysed using LC-MS/MS.
(§2) IC50 values were determined by comparing each CYP isozyme activity in the presence of different concentrations of inhibitor (Garcinol) with the control incubations containing no inhibitor (Negative control). […]
(§3) The entire procedure is same as mentioned in section 2.3 except for various concentrations of the formulations
(§4) and extracts (0.41-100 µg/mL) and garcinol (0.11-30 µM) were used in the study.

Data set [3] has as its system CYP3A4. Kind of data set: CYP3A4 inhibition, probe substrate cocktail in rat liver microsomes (midazolam 1-hydroxylation). The data set is classed as in vitro ADME. Conditions: pH 7.4, probe midazolam (1-hydroxylation), rat liver microsomes 0.5 mg/mL, garcinol 0.11-30 µM. The method, then: as §1, §2, §3, §4
(In general: Liver microsomes are vesicles of endoplasmic reticulum, rich in cytochrome P450 enzymes.)

For the next data set, the target named is T1, CYP1A2 (Rattus norvegicus, UniProt P04799).
T1 sequence (P04799 1-513): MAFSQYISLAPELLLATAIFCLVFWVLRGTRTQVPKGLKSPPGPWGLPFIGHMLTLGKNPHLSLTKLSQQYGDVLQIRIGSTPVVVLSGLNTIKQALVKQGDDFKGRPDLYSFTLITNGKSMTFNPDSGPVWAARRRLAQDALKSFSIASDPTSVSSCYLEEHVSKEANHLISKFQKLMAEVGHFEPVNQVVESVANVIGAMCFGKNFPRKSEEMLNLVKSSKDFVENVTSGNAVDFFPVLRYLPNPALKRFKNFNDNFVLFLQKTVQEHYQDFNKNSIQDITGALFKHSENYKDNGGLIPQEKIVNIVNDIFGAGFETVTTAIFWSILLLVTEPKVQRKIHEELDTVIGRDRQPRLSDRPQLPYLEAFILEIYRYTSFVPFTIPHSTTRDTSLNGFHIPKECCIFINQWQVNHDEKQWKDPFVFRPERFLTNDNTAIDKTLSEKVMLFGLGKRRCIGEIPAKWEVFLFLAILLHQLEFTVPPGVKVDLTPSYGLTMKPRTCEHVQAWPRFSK
Kind of data set: CYP1A2 inhibition, probe substrate cocktail in rat liver microsomes (tacrine 1-hydroxylation). As for the experimental part:
as §1, §2, §3, §4

Data set [4] deals with CYP2B6. Put plainly: CYP2B6 inhibition, probe substrate cocktail in rat liver microsomes (bupropion hydroxylation). Format: in vitro ADME. Conditions: pH 7.4, probe bupropion (hydroxylation). As for the experimental part:
as §1, §2, §3, §4

Another data set relates to CYP2C8. Kind of data set: CYP2C8 inhibition, probe substrate cocktail in rat liver microsomes (paclitaxel 6α-hydroxylation). Conditions: for Inhibition of CYP2C8 (in words): rat liver microsomes, garcinol up to 30 µM. Format: in vitro ADME. The method, then: as §1, §2, §3, §4
The test system of data set [5] is P-gp. Kind of data set: Western blotting of P-gp expression in rat brain and intestine. The settings on record: garcinol 25 mg/kg intragastric once a day for 10 days, normalized to β-actin, p < 0.05. The data set is classed as in vivo, rats. The method, then: For Western blot analysis, twelve rats were divided into two groups. […] On the 10th day, all the rats were sacrificed under CO2 euthanasia. Brain and intestine were isolated immediately and stored at −80 °C until use. 10 mg of intestinal and brain samples were lysed using ice-cold radio immunoprecipitation assay lysis buffer containing 0.02 mM phenylmethane sulfonyl fluoride for 30 min and ultrasonicated for 60 s at 20-s intervals in an ice bath. These samples were transferred to centrifugation tubes and centrifuged for 10 min at 8000 g by maintaining temperature at 4 °C. Supernatants were estimated for protein concentration using BCA protein assay kit by following the manufacturer’s instructions. Protein denaturation was performed by reconstituting the supernatant in lammelle buffer and boiled for 5 mins at 97 °C. The denatured samples were later separated on 10% SDS-polyacrylamide gel electrophoresis and then transferred onto a nitrocellulose membrane. The membrane was then blocked with 3% bovine serum albumin in Tris-buffered saline-Tween 20 (TBS-T) for 1 hr at 37 °C. These immunoblots were probed with primary monoclonal antibody P-gp (1:1000) or β-actin (1:1000) overnight at 4 °C. […] The band intensity of P-gp protein was normalized to that of β-actin detected using Azure biosystems.
Background: A western blot detects proteins with antibodies after separation by electrophoresis.

A further data set deals with CYP isoforms. Kind of data set: Time-dependent inhibition, IC50 shift assay in rat liver microsomes. Conditions: 30 min pre-incubation with and without NADPH, all tested CYP isoforms. The data set is classed as in vitro ADME. The method, then: Garcinol was pre-incubated with rat liver microsomes to determine the time-dependent inhibition potential of garcinol on various CYP isoforms individually. After 30 min of incubation with and without NADPH separately, metabolites of each CYP probe substrates were quantified using LC-MS/MS. IC50 values with and without NADPH pre-incubation were calculated using graph-pad prism and change in IC50 fold was calculated to evaluate the potential of garcinol to inhibit the CYP enzymes irreversibly. If the curve shifts to lower IC50 value after the pre- incubation in presence of NADPH, it is said to be a time-dependent inhibition. Concentrations of the test compound and other procedure were same as reversible inhibition study mentioned under Section 2.3.

Another data set deals with CYP2C9. Kind of data set: CYP2C9 inhibition, probe substrate cocktail in rat liver microsomes (diclofenac 4-hydroxylation). The data set is classed as in vitro ADME. The settings on record: pH 7.4, probe diclofenac (4-hydroxylation), rat liver microsomes 0.5 mg/mL, garcinol 0.11-30 µM. As for the experimental part: as §1, §2, §3, §4
Another data set concerns CYP2D6. Kind of data set: CYP2D6 inhibition, probe substrate cocktail in rat liver microsomes (dextromethorphan O-demethylation). The data set is classed as in vitro ADME. Conditions: pH 7.4, probe dextromethorphan (O-demethylation), rat liver microsomes 0.5 mg/mL, garcinol 0.11-30 µM. The method, then:
as §1, §2, §3, §4

The target in another data set is CYP2E1 (Rattus norvegicus, UniProt P05182). Put plainly: CYP2E1 inhibition, probe substrate cocktail in rat liver microsomes (chlorzoxazone 6-hydroxylation). As for the experimental part:
as §1, §2, §3, §4

Data set [6] relates to CYP3A4. The settings on record: rats, midazolam 10 mg/kg in probe mixture on day 8, with garcinol 25 mg/kg oral for 7 days, plasma; second block of Table 3.
Data set [7] deals with CYP3A4. Put plainly: in vivo. Conditions: Sprague-Dawley, rat, plasma, po, 10 mg/kg.
[8] abbreviates: Sprague-Dawley, rat, po, 10 mg/kg.
The mark [9] stands for this setting: digoxin 0.5 mg/kg 2 h after single dose garcinol 25 mg/kg (group DGX + Garcinol).
The mark [10] stands for this setting: Sprague-Dawley, digoxin 0.5 mg/kg intragastric 2 h after vehicle (group DGX).
Setting [11] is: rats, bupropion 10 mg/kg in probe mixture on day 8, with garcinol 25 mg/kg oral for 7 days.

Chain of CYP2E1 (P05182 whole entry): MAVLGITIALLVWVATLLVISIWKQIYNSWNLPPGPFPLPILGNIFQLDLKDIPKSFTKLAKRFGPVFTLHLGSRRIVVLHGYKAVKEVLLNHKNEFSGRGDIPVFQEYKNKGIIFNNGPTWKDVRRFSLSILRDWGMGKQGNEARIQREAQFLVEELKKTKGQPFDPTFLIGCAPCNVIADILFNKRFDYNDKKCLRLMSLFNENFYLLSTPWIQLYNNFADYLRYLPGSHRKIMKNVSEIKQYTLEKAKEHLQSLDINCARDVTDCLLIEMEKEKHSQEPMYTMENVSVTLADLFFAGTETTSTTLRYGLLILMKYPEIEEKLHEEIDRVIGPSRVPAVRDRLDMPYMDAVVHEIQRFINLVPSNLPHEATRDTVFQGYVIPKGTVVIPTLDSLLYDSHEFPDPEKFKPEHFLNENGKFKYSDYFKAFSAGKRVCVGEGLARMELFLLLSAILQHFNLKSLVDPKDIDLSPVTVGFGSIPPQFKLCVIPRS

As for `CC(NC(C)(C)C)C(=O)c1cccc(Cl)c1` (stereo not shown) [Bupropion, bupropion], in the data set with CYP2B6 [1] (setting [8]), the AUC(0-inf) was 48800 ng·h/mL, the AUC(0-t) was found to be 48200 ng·h/mL, the concentration peaked (Cmax) at 8100 ± 121 ng/mL and the time of peak concentration (Tmax) came out at 2.5 ± 3.52 h.

As to `C[C@H]1O[C@@H](O[C@H]2[C@@H](O)C[C@H](O[C@H]3[C@@H](O)C[C@H](O[C@H]4CC[C@@]5(C)[C@H](CC[C@@H]6[C@@H]5C[C@@H](O)[C@]5(C)[C@@H](C7=CC(=O)OC7)CC[C@]65O)C4)O[C@@H]3C)O[C@@H]2C)C[C@H](O)[C@@H]1O` [DGX, digoxin], in the data set on P-gp [2] (setting [9]), the Cl is 24.5793 ± 1.422 mL/min/kg, the AUC(0-inf) was determined as 172 ± 12.6 ng·h/mL, the exposure AUC(0-t) turned out to be 151.4 ± 0.58 ng·h/mL and the half-life is 7.32 ± 1.75 h. In the data set on P-gp [2] (digoxin 0.5 mg/kg intragastric 2 h after vehicle (group DGX)), the Cl was found to be 16.401 ± 0.9478 mL/min/kg. In addition, the Cmax in the data set with P-gp [2] (Sprague-Dawley, digoxin 0.5 mg/kg 2 h after single dose garcinol 25 mg/kg (group DGX + Garcinol)) came out at 16.8 ± 4.22 ng/mL. In the data set with P-gp [2] (setting [10]), this compound gave a Cmax of 26.1 ± 5.23 ng/mL, an area under the curve AUC(0-inf) of 254 ± 19.2 ng·h/mL, an exposure AUC(0-t) of 172 ± 12.3 ng·h/mL and a half-life of 15.1 ± 0.35 h.

On to `C=C(C)[C@@H](CC=C(C)C)C[C@@]12C[C@@H](CC=C(C)C)C(C)(C)[C@@](CC=C(C)C)(C(=O)C(C(=O)c3ccc(O)c(O)c3)=C1O)C2=O` [Garcinol], for which the IC50 in the data set with CYP2C19 was 16.4 µM; with CYP3A4 [3], 5.1 µM; at CYP1A2, 7.6 µM; in the data set on CYP2B6 [4], 2.1 µM; in the data set on CYP2C8 (pH 7.4, probe paclitaxel (6α-hydroxylation), rat liver microsomes 0.5 mg/mL, substrate paclitaxel, garcinol 0.11-30 µM) it was > 30 µM; with CYP2C9 it was 8 µM. The IC50 is 9.5 µM in the data set on CYP2D6 and 19 µM at CYP2E1. The “Inhibition of CYP2C8 (in words)” value is recorded as “no apparent inhibition” in the data set with CYP2C8 and “negligibly inhibited” in the data set with CYP2C8 (listed as garcinol). In addition, the “P-gp expression increase vs control group” value with P-gp [5] (rat brain tissue) is on record as 1.62 fold; in the data set with P-gp [5] (rat intestinal tissue), 1.07 fold. Moreover, the “Shift in IC50 (time dependent inhibition)” value was “no significant shift” in the data set with CYP isoforms and “did not show shift” in the data set with CYP isoforms (listed as garcinol). In addition, the “Effect on P-gp function in vivo (in words)” value in the data set with P-gp [2] (rats, single dose garcinol 25 mg/kg, digoxin as P-gp substrate) is “not an inhibitor of P-gp”.

As for `C[C@H]1NC(C)(C)CO[C@]1(O)c1cccc(Cl)c1` [Hydroxy Bupropion, hydroxybupropion], in the data set with CYP2B6 [1] (setting [11]), the “AUC0-∞” value was 6200.97 ± 106.97 ng·h/mL, the AUClast stood at 6057.86 ± 101.41 ng·h/mL, the peak concentration (Cmax) turned out to be 632.02 ± 30.55 ng/mL and the time to peak (Tmax) was determined as 1 ± 1.93 h. Further, the t1/2 in the data set on CYP2B6 [1] (setting [11]) is 10.23 ± 0.04 h.

As for `OCc1ncc2n1-c1ccc(Cl)cc1C(c1ccccc1F)=NC2` [hydroxy midazolam, 1-hydroxy midazolam], in the data set with CYP3A4 [6], the AUClast is 737.45 ± 66.95 ng·h/mL, the highest concentration (Cmax) is reported as 482.85 ± 14.34 ng/mL, the Tmax is 0.25 ± 1.92 h and the t1/2 stood at 2.15 ± 0.36 h.

On to `Cc1ncc2n1-c1ccc(Cl)cc1C(c1ccccc1F)=NC2` [midazolam], for which, in the data set on CYP3A4 [7], the AUC(0-inf) amounted to 1140 ± 77.4 ng·h/mL, the exposure AUC(0-t) amounted to 1240 ± 18.6 ng·h/mL, the peak level (Cmax) was 829 ± 15.7 ng/mL and the Tmax stood at 0.5 ± 1.23 h. The half-life with CYP3A4 [7] is 3.12 ± 0.88 h.
